In US20230399342A1 (Incyte Corporation, priority 2022, published 2023):
pIC50: −log10 of the molar value.

Experiments:
DGKα = DGKα (Homo sapiens (Human), UniProt P23743); assay: In vitro DGKα inhibition assay (ADP-Glo); format: biochemical; settings: His-tagged human recombinant enzyme, 0.1 nM DGKα, 50 μM ATP, 20 μM DLG, 90 minute incubation
Procedure, shortened: (§1)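 His-tagged human DGKα (0.1 nM, 50 μM ATP) or DGKζ (0.4 nM, 30 μM ATP), each with 20 μM DLG, in Tris pH 7.5 buffer with CHAPS, Mg2+, Ca2+.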

DGKζ = DGKζ (Homo sapiens (Human), UniProt Q13574); assay: In vitro DGKζ inhibition assay (ADP-Glo); format: biochemical; settings: His-tagged human recombinant enzyme, 0.4 nM DGK, 30 μM ATP, 20 μM DLG, 90 minute incubation
Procedure, shortened: as §1

Sequence of DGKα (P23743 whole entry): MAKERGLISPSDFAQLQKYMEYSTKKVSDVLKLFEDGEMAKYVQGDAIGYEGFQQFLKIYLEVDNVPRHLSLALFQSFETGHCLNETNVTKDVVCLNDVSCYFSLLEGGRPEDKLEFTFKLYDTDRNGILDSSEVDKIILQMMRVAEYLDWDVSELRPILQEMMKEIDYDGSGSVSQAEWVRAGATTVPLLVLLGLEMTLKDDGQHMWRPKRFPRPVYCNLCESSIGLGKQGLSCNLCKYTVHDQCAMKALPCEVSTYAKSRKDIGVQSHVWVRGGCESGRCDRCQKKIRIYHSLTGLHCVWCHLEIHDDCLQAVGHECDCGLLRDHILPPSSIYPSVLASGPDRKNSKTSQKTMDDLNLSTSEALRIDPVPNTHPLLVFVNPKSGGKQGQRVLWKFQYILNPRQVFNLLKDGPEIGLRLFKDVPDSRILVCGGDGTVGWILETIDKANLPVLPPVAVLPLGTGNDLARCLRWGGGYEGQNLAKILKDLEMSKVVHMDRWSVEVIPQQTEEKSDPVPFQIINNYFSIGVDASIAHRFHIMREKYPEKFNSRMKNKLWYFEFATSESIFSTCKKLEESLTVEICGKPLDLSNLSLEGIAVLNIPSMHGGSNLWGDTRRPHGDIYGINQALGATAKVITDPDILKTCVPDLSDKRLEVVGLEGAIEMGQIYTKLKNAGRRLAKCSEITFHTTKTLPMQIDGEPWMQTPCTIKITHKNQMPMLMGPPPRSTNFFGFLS
Sequence of DGKζ (Q13574 whole entry): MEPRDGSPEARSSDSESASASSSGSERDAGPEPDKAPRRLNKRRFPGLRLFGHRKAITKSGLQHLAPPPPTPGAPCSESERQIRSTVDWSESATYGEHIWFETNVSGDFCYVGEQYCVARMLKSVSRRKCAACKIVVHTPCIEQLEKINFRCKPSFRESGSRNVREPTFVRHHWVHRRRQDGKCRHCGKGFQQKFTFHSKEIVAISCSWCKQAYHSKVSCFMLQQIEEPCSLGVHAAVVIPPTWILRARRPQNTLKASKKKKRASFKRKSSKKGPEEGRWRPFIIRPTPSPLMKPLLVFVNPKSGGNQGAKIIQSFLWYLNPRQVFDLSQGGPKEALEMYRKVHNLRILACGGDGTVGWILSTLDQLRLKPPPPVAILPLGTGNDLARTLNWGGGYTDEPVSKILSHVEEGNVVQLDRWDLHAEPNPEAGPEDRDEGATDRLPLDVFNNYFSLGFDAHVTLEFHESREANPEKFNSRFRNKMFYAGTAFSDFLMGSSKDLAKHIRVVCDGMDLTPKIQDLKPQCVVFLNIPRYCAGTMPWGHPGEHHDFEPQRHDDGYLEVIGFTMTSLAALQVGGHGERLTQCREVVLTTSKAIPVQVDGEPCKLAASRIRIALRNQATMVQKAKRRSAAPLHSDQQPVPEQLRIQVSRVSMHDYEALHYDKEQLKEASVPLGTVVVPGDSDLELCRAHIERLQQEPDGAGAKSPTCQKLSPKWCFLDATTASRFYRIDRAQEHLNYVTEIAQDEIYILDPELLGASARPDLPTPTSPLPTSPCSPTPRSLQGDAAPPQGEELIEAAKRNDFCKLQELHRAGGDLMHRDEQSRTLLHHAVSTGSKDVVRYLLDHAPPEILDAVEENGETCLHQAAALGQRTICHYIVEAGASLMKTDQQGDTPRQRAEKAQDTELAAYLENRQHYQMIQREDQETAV

Row | Compound | pIC50 (DGKα) | pIC50 (DGKζ)
1 | CC[C@@H]1CN(c2nc3nncn3c3c2nnn3C[C@@H]2CCCO2)[C@@H](C)CN1C(c1ccc(Cl)cc1)C1CC(F)(F)C1 (stereo partly drawn) [Example 121, 4-((2S,5R)-4-((4-Chlorophenyl)(3,3-difluorocyclobutyl)methyl)-5-ethyl-2-methylpiperazin-1-yl)-1-(((S)-tetrahydrofuran-2-yl)methyl)-1H-[1,2,3]triazolo[4,5-e][1,2,4]triazolo[4,3-a]pyrimidine] | ≥ 7.70 | ≥ 7.70
2 | Cc1nc2c(N3C[C@@H](C)N(C(c4ccc(Br)cc4)C4CC(F)(F)C4)C[C@@H]3C)nc3nncn3c2n1C[C@@H]1CCCO1 (stereo partly drawn) [Example 61, 4-((2S,5R)-4-((4-Bromophenyl)(3,3-difluorocyclobutyl)methyl)-2,5-dimethylpiperazin-1-yl)-2-methyl-1-(((S)-tetrahydrofuran-2-yl)methyl)-1H-[1,2,4]triazolo[3,4-b]purine] | ≥ 7.70 | ≥ 7.70
3 | Cc1nc2c(N3C[C@@H](C)N(C(c4ccc(C(F)(F)F)c(F)c4)C(C)C)C[C@@H]3C)nc3nncn3c2n1C[C@@H]1CCCO1 (stereo partly drawn) [Example 83, 4-((2S,5R)-4-(1-(3-Fluoro-4-(trifluoromethyl)phenyl)-2-methylpropyl)-2,5-dimethylpiperazin-1-yl)-2-methyl-1-(((S)-tetrahydrofuran-2-yl)methyl)-1H-[1,2,4]triazolo[3,4-b]purine] | ≥ 7.70 | ≥ 7.70
4 | CC[C@@H]1CN(c2nc3nncn3c3c2nnn3C[C@H]2CCCO2)[C@@H](C)CN1C(c1ccc(Cl)cc1)c1ccc(Cl)cc1 [Example 40, 4-((2S,5R)-4-(Bis(4-chlorophenyl)methyl)-5-ethyl-2-methylpiperazin-1-yl)-1-(((R)-tetrahydrofuran-2-yl)methyl)-1H-[1,2,3]triazolo[4,5-e][1,2,4]triazolo[4,3-a]pyrimidine] | ≥ 7.70 | ≥ 7.70
5 | Cc1nc2c(N3C[C@@H](C)N([C@@H](c4ccc(F)c(F)c4)C4CC(F)(F)C4)C[C@@H]3C)nc3nncn3c2n1C[C@@H]1CCCO1 [Example 47, 4-((2S,5R)-4-((R)-(3,3-difluorocyclobutyl)(3,4-difluorophenyl)methyl)-2,5-dimethylpiperazin-1-yl)-2-methyl-1-(((S)-tetrahydrofuran-2-yl)methyl)-1H-[1,2,4]triazolo[3,4-b]purine] | ≥ 7.70 | ≥ 7.70
6 | Cc1nc2c(N3C[C@@H](C)N(C(c4ccc(Cl)cc4)c4ccc(Cl)cc4)C[C@@H]3C)nc3nncn3c2n1C[C@@H]1CCCO1 [Example 105, 4-((2S,5R)-4-(Bis(4-chlorophenyl)methyl)-2,5-dimethylpiperazin-1-yl)-2-methyl-1-(((S)-tetrahydrofuran-2-yl)methyl)-1H-[1,2,4]triazolo[3,4-b]purine] | ≥ 7.70 | ≥ 7.70
7 | C[C@@H]1CN(c2nc3nncn3c3c2ncn3CCN(C)C)[C@@H](C)CN1C(c1ccc(F)cc1)c1ccc(F)cc1 [Example 28, 2-(4-((2S,5R)-4-(Bis(4-fluorophenyl)methyl)-2,5-dimethylpiperazin-1-yl)-1H-[1,2,4]triazolo[3,4-b]purin-1-yl)-N,N-dimethylethan-1-amine] | ≥ 7.70 | ≥ 7.70
8 | CC[C@@H]1CN(c2nc3nncn3c3c2nnn3C[C@@H]2CCCO2)[C@@H](C)CN1C(c1ccc(Cl)cc1)c1ccc(Cl)cc1 [Example 39, 4-((2S,5R)-4-(Bis(4-chlorophenyl)methyl)-5-ethyl-2-methylpiperazin-1-yl)-1-(((S)-tetrahydrofuran-2-yl)methyl)-1H-[1,2,3]triazolo[4,5-e][1,2,4]triazolo[4,3-a]pyrimidine] | ≥ 7.70 | ≥ 7.70
9 | CC[C@@H]1CN(c2nc3nncn3c3c2ncn3CCN(C)C)[C@@H](C)CN1C(c1ccc(F)cc1)c1ccc(F)cc1 [Example 37, 2-(4-((2S,5R)-4-(Bis(4-fluorophenyl)methyl)-5-ethyl-2-methylpiperazin-1-yl)-1H-[1,2,4]triazolo[3,4-b]purin-1-yl)-N,N-dimethylethan-1-amine] | ≥ 7.70 | ≥ 7.70
10 | CCn1ccc2c1c(N1C[C@@H](C)N(C(c3ccc(F)cc3)c3ccc(F)cc3)C[C@@H]1C)nc1nncn12 [Example 10, 5-((2S,5R)-4-(Bis(4-fluorophenyl)methyl)-2,5-dimethylpiperazin-1-yl)-6-ethyl-6H-pyrrolo[2,3-e][1,2,4]triazolo[4,3-a]pyrimidine] | ≥ 7.70 | < 5.70
11 | Cc1nc2c(N3C[C@@H](C)N(C(c4ccc(C(F)(F)F)c(F)c4)C4CC(F)(F)C4)C[C@@H]3C)nc3nncn3c2n1C[C@@H]1CCCO1 (single isomer, unassigned) [Example 45] | ≥ 7.70 | ≥ 7.70
12 | C[C@@H]1CN(c2nc3nncn3c3c2ncn3CCN(C)C)[C@@H](C)CN1C(c1ccc(Cl)c(F)c1)C1CC(F)(F)C1 (stereo partly drawn) [Example 136, 2-(4-((2S,5R)-4-((4-Chloro-3-fluorophenyl)(3,3-difluorocyclobutyl)methyl)-2,5-dimethylpiperazin-1-yl)-1H-[1,2,4]triazolo[3,4-b]purin-1-yl)-N,N-dimethylethan-1-amine] | ≥ 7.70 | ≥ 7.70
13 | C[C@@H]1CN(c2nc3nncn3c3c2nnn3C[C@H]2CCCO2)[C@@H](C)CN1C(c1ccc(Br)cc1)c1ccc(Br)cc1 [Example 110, 4-((2S,5R)-4-(Bis(4-bromophenyl)methyl)-2,5-dimethylpiperazin-1-yl)-1-(((R)-tetrahydrofuran-2-yl)methyl)-1H-[1,2,3]triazolo[4,5-e][1,2,4]triazolo[4,3-a]pyrimidine] | ≥ 7.70 | ≥ 7.70
14 | C[C@H]1CN(C(c2ccc(F)cc2)c2ccc(F)cc2)[C@H](CC#N)CN1c1nc2nncn2c2c1ncn2C [Example 16, 2-((2R,5S)-1-(Bis(4-fluorophenyl)methyl)-5-methyl-4-(1-methyl-1H-[1,2,4]triazolo[3,4-b]purin-4-yl)piperazin-2-yl)acetonitrile] | ≥ 7.70 | ≥ 7.70
15 | C[C@@H]1CN(c2nc3nncn3c3scnc23)[C@@H](C)CN1C(c1ccc(F)cc1)c1ccc(F)cc1 [Example 1, 4-((2S,5R)-4-(Bis(4-fluorophenyl)methyl)-2,5-dimethylpiperazin-1-yl)thiazolo[4,5-e][1,2,4]triazolo[4,3-a]pyrimidine] | ≥ 7.70 | 6.70 to 7.70
16 | N#CCC[C@@H]1CN(c2nc3nncn3c3scnc23)CCN1C(c1ccc(F)cc1)c1ccc(F)cc1 [Example 17, (R)-3-(1-(Bis(4-fluorophenyl)methyl)-4-(thiazolo[4,5-e][1,2,4]triazolo[4,3-a]pyrimidin-4-yl)piperazin-2-yl)propanenitrile] | ≥ 7.70 | 6.70 to 7.70
17 | COc1ccc([C@H](C(C)C)N2C[C@H](C)N(c3nc4nncn4c4c3nc(C)n4C[C@@H]3CCCO3)C[C@H]2C)cc1 [Example 77, 4-((2S,5R)-4-((S)-1-(4-Methoxyphenyl)-2-methylpropyl)-2,5-dimethylpiperazin-1-yl)-2-methyl-1-(((S)-tetrahydrofuran-2-yl)methyl)-1H-[1,2,4]triazolo[3,4-b]purine] | ≥ 7.70 | ≥ 7.70
18 | Cc1nc2c(N3C[C@@H](C)N(C(c4ccc(F)c(Cl)c4)[C@H]4C[C@H](C(F)(F)F)C4)C[C@@H]3C)nc3nncn3c2n1C[C@@H]1CCCO1 (stereo partly drawn) [Example 113, 4-((2S,5R)-4-((3-Chloro-4-fluorophenyl)((trans)-3-(trifluoromethyl)cyclobutyl)methyl)-2,5-dimethylpiperazin-1-yl)-2-methyl-1-(((S)-tetrahydrofuran-2-yl)methyl)-1H-[1,2,4]triazolo[3,4-b]purine] | ≥ 7.70 | ≥ 7.70
19 | COC[C@@H]1CN(c2nc3nncn3c3scnc23)[C@@H](C)CN1C(c1ccc(F)cc1)c1ccc(F)cc1 [Example 13, 4-((2S,5S)-4-(Bis(4-fluorophenyl)methyl)-5-(methoxymethyl)-2-methylpiperazin-1-yl)thiazolo[4,5-e][1,2,4]triazolo[4,3-a]pyrimidine] | ≥ 7.70 | 6.70 to 7.70
20 | Cc1nc2c(N3C[C@@H](C)N([C@H](c4ccc(F)cc4)c4ccc(F)c(C(F)(F)F)n4)C[C@@H]3C)nc3nncn3c2n1C[C@@H]1CCCO1 (single isomer, unassigned) [Example 104] | ≥ 7.70 | ≥ 7.70
21 | Cc1nc2c(N3C[C@@H](C)N(C(c4ccc(Cl)c(F)c4)C4CC(F)(F)C4)C[C@@H]3C)nc3nncn3c2n1C[C@@H]1CCCO1 (single isomer, unassigned) [Example 50] | ≥ 7.70 | ≥ 7.70
22 | CC[C@@H]1CN(c2nc3nncn3c3c2nc(C)n3C[C@@H]2CCCO2)[C@@H](C)CN1C(c1ccc(Cl)cc1)c1ccc(Cl)cc1 [Example 41, 4-((2S,5R)-4-(Bis(4-chlorophenyl)methyl)-5-ethyl-2-methylpiperazin-1-yl)-2-methyl-1-(((S)-tetrahydrofuran-2-yl)methyl)-1H-[1,2,4]triazolo[3,4-b]purine] | ≥ 7.70 | ≥ 7.70
23 | C[C@@H]1CN(c2nc3nncn3c3c2ncn3C[C@@H]2CCCO2)[C@@H](C)CN1[C@H](c1ccc(F)cc1)c1ccc(OC(F)(F)F)cn1 [Example 27, 4-((2S,5R)-4-((R)-(4-fluorophenyl)(5-(trifluoromethoxy)pyridin-2-yl)methyl)-2,5-dimethylpiperazin-1-yl)-1-(((S)-tetrahydrofuran-2-yl)methyl)-1H-[1,2,4]triazolo[3,4-b]purine] | ≥ 7.70 | ≥ 7.70
24 | Cc1nnc2nc(N3C[C@@H](C)N(C(c4ccc(F)cc4)c4ccc(F)cc4)C[C@@H]3C)c3ncsc3n12 [Example 2, 4-((2S,5R)-4-(Bis(4-fluorophenyl)methyl)-2,5-dimethylpiperazin-1-yl)-8-methylthiazolo[4,5-e][1,2,4]triazolo[4,3-a]pyrimidine] | ≥ 7.70 | 5.70 to 6.70
